Measurements taken from ChEMBL document CHEMBL1201862, “PubChem BioAssay data set” (2004).
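Growth conditions: 96-well plates. Treatment: test compound, 48 hours, 5 concentrations. Analysis: linear interpolation between bracketing concentrations; unreached endpoints set to highest concentration. Here, GI50 denotes the concentration required for 50% inhibition of growth.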 Active and inactive are the calls of the source. No stated cut-off is given here; in the data, active = GI50 up to about 1.1 µM and inactive = higher.

What was measured:
Experiment in all cases: NCI-60 cell line screen, 48 h
[1] = system: BT-549
[2] = system: CAKI-1
[3] = system: HOP-92
[4] = system: MDA-MB-231
[5] = system: RPMI-8226
[6] = system: MOLT-4
[7] = system: OVCAR-5
[8] = system: HT-29
[9] = system: UACC-257
[10] = system: RXF 393
[11] = system: 786-0
[12] = system: UACC-62
[13] = system: MDA-MB-435
[14] = system: M14
[15] = system: SW-620
[16] = system: SK-MEL-5
[17] = system: OVCAR-4
[18] = system: SK-OV-3
[19] = system: COLO 205
[20] = system: SNB-19
[21] = system: ACHN
[22] = system: SN12C
[23] = system: NCI-H23
[24] = system: HCT-116
[25] = system: EKVX
[26] = system: PC-3
[27] = system: HL-60
[28] = system: U-251
[29] = system: IGROV-1
[30] = system: A498
[31] = system: Malme-3M
[32] = system: KM12
[33] = system: NCI-H226
[34] = system: MDA-N
[35] = system: SF-295
[36] = system: HCC 2998
[37] = system: MCF7
[38] = system: SK-MEL-2
[39] = system: HOP-62
[40] = system: SR
[41] = system: DU-145
[42] = system: Hs-578T
[43] = system: HCT-15
[44] = system: OVCAR-3
[45] = system: NCI/ADR-RES
[46] = system: UO-31
[47] = system: SF-539
[48] = system: CCRF-CEM
[49] = system: TK-10
[50] = system: OVCAR-8
[51] = system: NCI-H460
[52] = system: NCI-H522
[53] = system: LOX IMVI
[54] = system: K562
[55] = system: SNB-75
[56] = system: T47D
[57] = system: SF-268
[58] = system: SK-MEL-28
[59] = system: A549

With `C/C(=N/CC(=O)O)c1ccccc1` the GI50 [1] was 61 µM (inactive), the GI50 [2] was > 100 µM (inactive) and the GI50 [3] was > 100 µM (inactive). For the same compound, the GI50 [4] was > 100 µM (inactive), the GI50 [5] was > 100 µM (inactive) and the GI50 [6] was 70.5 µM (inactive). For the same compound, the GI50 [7] was > 100 µM (inactive), the GI50 [8] was > 100 µM (inactive) and the GI50 [9] was > 100 µM (inactive). For the same compound, the GI50 [10] was > 100 µM (inactive), the GI50 [11] was > 100 µM (inactive) and the GI50 [12] was > 100 µM (inactive). The GI50 [13] was > 100 µM (inactive), the GI50 [14] was > 100 µM (inactive) and the GI50 [15] was > 100 µM (inactive). The GI50 [16] was 89.5 µM (inactive), the GI50 [17] was > 100 µM (inactive) and the GI50 [18] was > 100 µM (inactive). The GI50 [19] was > 100 µM (inactive), the GI50 [20] was > 100 µM (inactive) and the GI50 [21] was > 100 µM (inactive). For the same compound, the GI50 [22] was > 100 µM (inactive), the GI50 [23] was 92.5 µM (inactive) and the GI50 [24] was > 100 µM (inactive). For the same compound, the GI50 [25] was > 100 µM (inactive), the GI50 [26] was > 100 µM (inactive) and the GI50 [27] was 35.9 µM (inactive). For the same compound, the GI50 [28] was > 100 µM (inactive), the GI50 [29] was > 100 µM (inactive) and the GI50 [30] was > 100 µM (inactive). The GI50 [31] was > 100 µM (inactive), the GI50 [32] was > 100 µM (inactive) and the GI50 [33] was > 100 µM (inactive). The GI50 [34] was > 100 µM (inactive), the GI50 [35] was > 100 µM (inactive) and the GI50 [36] was 39.8 µM (inactive). The GI50 [37] was > 100 µM (inactive), the GI50 [38] was > 100 µM (inactive) and the GI50 [39] was > 100 µM (inactive). The GI50 [40] was 65 µM (inactive), the GI50 [41] was > 100 µM (inactive) and the GI50 [42] was > 100 µM (inactive). The GI50 [43] was > 100 µM, the GI50 [44] was > 100 µM (inactive) and the GI50 [45] was > 100 µM (inactive). The GI50 [46] was 97.5 µM (inactive), the GI50 [47] was > 100 µM (inactive) and the GI50 [48] was 27.8 µM (inactive). For the same compound, the GI50 [49] was > 100 µM (inactive), the GI50 [50] was > 100 µM (inactive) and the GI50 [51] was > 100 µM (inactive). For the same compound, the GI50 [52] was 34.8 µM (inactive), the GI50 [53] was > 100 µM (inactive) and the GI50 [54] was > 100 µM (inactive). For the same compound, the GI50 [55] was > 100 µM (inactive), the GI50 [56] was > 100 µM (inactive) and the GI50 [57] was > 100 µM (inactive). The GI50 [58] was > 100 µM (inactive) and the GI50 [59] was > 100 µM (inactive).

With `C[C@H](CCC(=O)O)[C@H]1CC[C@H]2[C@@H]3[C@H](O)C[C@@H]4C[C@H](O)CC[C@]4(C)[C@H]3C[C@H](O)[C@]12C` the GI50 [1] was > 100 µM (inactive), the GI50 [2] was > 100 µM (inactive) and the GI50 [3] was > 100 µM (inactive). For the same compound, the GI50 [4] was > 100 µM (inactive), the GI50 [5] was > 100 µM (inactive) and the GI50 [6] was > 100 µM (inactive). The GI50 [7] was > 100 µM (inactive), the GI50 [8] was > 100 µM (inactive) and the GI50 [9] was > 100 µM (inactive). The GI50 [10] was > 100 µM (inactive), the GI50 [11] was > 100 µM (inactive) and the GI50 [12] was > 100 µM (inactive). The GI50 [13] was > 100 µM (inactive), the GI50 [14] was > 100 µM (inactive) and the GI50 [15] was > 100 µM (inactive). The GI50 [16] was > 100 µM (inactive), the GI50 [17] was > 100 µM (inactive) and the GI50 [18] was > 100 µM (inactive). For the same compound, the GI50 [19] was > 100 µM (inactive), the GI50 [20] was > 100 µM (inactive) and the GI50 [21] was > 100 µM (inactive). For the same compound, the GI50 [22] was > 100 µM (inactive), the GI50 [23] was > 100 µM (inactive) and the GI50 [24] was > 100 µM (inactive). The GI50 [25] was > 100 µM (inactive), the GI50 [26] was > 100 µM (inactive) and the GI50 [27] was > 100 µM (inactive). For the same compound, the GI50 [28] was > 100 µM (inactive), the GI50 [29] was > 100 µM (inactive) and the GI50 [30] was > 100 µM (inactive). The GI50 [31] was > 100 µM (inactive), the GI50 [32] was > 100 µM (inactive) and the GI50 [33] was > 100 µM (inactive). The GI50 [34] was > 100 µM (inactive), the GI50 [35] was > 100 µM (inactive) and the GI50 [36] was > 100 µM (inactive). The GI50 [37] was > 100 µM (inactive), the GI50 [38] was > 100 µM (inactive) and the GI50 [39] was > 100 µM (inactive). For the same compound, the GI50 [40] was > 100 µM (inactive), the GI50 [41] was > 100 µM (inactive) and the GI50 [42] was > 100 µM (inactive). For the same compound, the GI50 [43] was > 100 µM, the GI50 [44] was > 100 µM (inactive) and the GI50 [45] was > 100 µM (inactive). The GI50 [46] was > 100 µM (inactive), the GI50 [47] was > 100 µM (inactive) and the GI50 [48] was > 100 µM (inactive). The GI50 [49] was > 100 µM (inactive), the GI50 [50] was > 100 µM (inactive) and the GI50 [51] was > 100 µM (inactive). For the same compound, the GI50 [52] was > 100 µM (inactive), the GI50 [53] was > 100 µM (inactive) and the GI50 [54] was > 100 µM (inactive). For the same compound, the GI50 [55] was > 100 µM (inactive), the GI50 [56] was > 100 µM (inactive) and the GI50 [57] was > 100 µM (inactive). For the same compound, the GI50 [58] was > 100 µM (inactive) and the GI50 [59] was > 100 µM (inactive).

`S=C1Cc2cc3ccccc3nc2-c2ccccc2N1` was tested, and the GI50 [1] was > 33.8 µM (inactive), the GI50 [2] was 29.6 µM (inactive) and the GI50 [3] was 8.87 µM (inactive). For the same compound, the GI50 [4] was 10.4 µM (inactive), the GI50 [5] was > 50.7 µM (inactive) and the GI50 [6] was > 96.8 µM (inactive). For the same compound, the GI50 [7] was 51.2 µM (inactive), the GI50 [8] was > 47.2 µM (inactive) and the GI50 [9] was 29.1 µM (inactive). The GI50 [10] was 8.65 µM (inactive), the GI50 [11] was 12.6 µM (inactive) and the GI50 [12] was 8.45 µM (inactive). The GI50 [13] was 29.7 µM (inactive), the GI50 [14] was 26.7 µM (inactive) and the GI50 [15] was 37 µM (inactive). For the same compound, the GI50 [16] was 44.8 µM (inactive), the GI50 [17] was 12.4 µM (inactive) and the GI50 [18] was 5.68 µM (inactive). For the same compound, the GI50 [19] was 54 µM (inactive), the GI50 [20] was > 29.3 µM (inactive) and the GI50 [21] was 24 µM (inactive). For the same compound, the GI50 [22] was 16.7 µM (inactive), the GI50 [23] was 23.9 µM (inactive) and the GI50 [24] was 13.6 µM (inactive). For the same compound, the GI50 [25] was 38 µM (inactive), the GI50 [26] was 36 µM (inactive) and the GI50 [27] was > 100 µM (inactive). The GI50 [28] was 13.7 µM (inactive), the GI50 [29] was 29 µM (inactive) and the GI50 [30] was 6.31 µM (inactive). The GI50 [31] was 27.5 µM (inactive), the GI50 [32] was 19.3 µM (inactive) and the GI50 [33] was 16.1 µM (inactive). For the same compound, the GI50 [34] was 5.13 µM (inactive), the GI50 [35] was 22.7 µM (inactive) and the GI50 [36] was 16.2 µM (inactive). For the same compound, the GI50 [37] was 38.9 µM (inactive), the GI50 [38] was 36.7 µM (inactive) and the GI50 [39] was 11.6 µM (inactive). The GI50 [40] was 29 µM (inactive), the GI50 [41] was 70.8 µM (inactive) and the GI50 [42] was 5.64 µM (inactive). The GI50 [43] was 42.3 µM, the GI50 [44] was 9.57 µM (inactive) and the GI50 [45] was 10.1 µM (inactive). For the same compound, the GI50 [46] was 9.06 µM (inactive), the GI50 [47] was 12.6 µM (inactive) and the GI50 [48] was > 100 µM (inactive). For the same compound, the GI50 [49] was 24.3 µM (inactive), the GI50 [50] was 11.9 µM (inactive) and the GI50 [51] was 15.1 µM (inactive). The GI50 [52] was 24.9 µM (inactive), the GI50 [53] was 33.4 µM (inactive) and the GI50 [54] was > 100 µM (inactive). For the same compound, the GI50 [55] was 7.24 µM (inactive), the GI50 [56] was 8.3 µM (inactive) and the GI50 [57] was 7.01 µM (inactive). For the same compound, the GI50 [58] was 27.5 µM (inactive) and the GI50 [59] was 26.1 µM (inactive).
